The target in this assay is T1, His-hSHIP1 enzyme (Homo sapiens, UniProt Q92835).
T1 construct: His
T1 sequence (Q92835 1-1189): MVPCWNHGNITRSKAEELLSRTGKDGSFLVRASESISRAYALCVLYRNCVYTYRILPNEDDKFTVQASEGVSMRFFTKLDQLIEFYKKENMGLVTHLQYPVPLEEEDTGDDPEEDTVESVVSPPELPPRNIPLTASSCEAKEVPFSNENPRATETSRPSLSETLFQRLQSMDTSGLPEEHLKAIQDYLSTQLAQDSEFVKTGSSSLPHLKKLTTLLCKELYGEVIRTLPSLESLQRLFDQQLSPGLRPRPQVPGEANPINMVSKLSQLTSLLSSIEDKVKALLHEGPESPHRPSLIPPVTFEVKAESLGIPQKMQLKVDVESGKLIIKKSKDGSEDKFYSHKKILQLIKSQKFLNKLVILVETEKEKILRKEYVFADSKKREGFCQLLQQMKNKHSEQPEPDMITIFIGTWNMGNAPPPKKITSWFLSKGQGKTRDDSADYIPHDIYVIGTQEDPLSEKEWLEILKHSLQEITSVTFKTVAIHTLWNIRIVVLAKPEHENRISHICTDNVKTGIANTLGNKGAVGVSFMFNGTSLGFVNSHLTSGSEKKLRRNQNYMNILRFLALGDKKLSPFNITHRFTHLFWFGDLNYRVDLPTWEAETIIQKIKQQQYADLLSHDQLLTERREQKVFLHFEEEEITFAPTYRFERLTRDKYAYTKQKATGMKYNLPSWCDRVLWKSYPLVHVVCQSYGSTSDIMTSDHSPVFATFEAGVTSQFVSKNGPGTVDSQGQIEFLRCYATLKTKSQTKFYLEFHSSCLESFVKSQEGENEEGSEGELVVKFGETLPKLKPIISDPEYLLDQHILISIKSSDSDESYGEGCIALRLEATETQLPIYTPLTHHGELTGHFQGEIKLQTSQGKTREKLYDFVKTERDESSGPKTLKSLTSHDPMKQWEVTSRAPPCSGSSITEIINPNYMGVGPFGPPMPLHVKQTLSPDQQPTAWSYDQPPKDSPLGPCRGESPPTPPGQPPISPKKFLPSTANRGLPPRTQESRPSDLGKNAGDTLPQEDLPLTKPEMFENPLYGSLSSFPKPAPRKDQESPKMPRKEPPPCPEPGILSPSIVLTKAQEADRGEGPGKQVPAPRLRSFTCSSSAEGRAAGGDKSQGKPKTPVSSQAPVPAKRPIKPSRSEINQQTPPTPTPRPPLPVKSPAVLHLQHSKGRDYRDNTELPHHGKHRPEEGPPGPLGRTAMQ
In words: His-hSHIP1 activity, approach 1 (phosphate release from IP4, Biomol Green). Type of assay: biochemical. The settings on record: activation of His-hSHIP1; IP4 50 μM; test compound 0-300 μM; no asterisk in Table 2. How it is done: Test compounds are dissolved in 95% ethanol to form stock solutions. Before screening, the stock solutions are diluted with Phosphatase Assay Buffer (20 mM Tris-HCL, 10 mM MgCl2 pH 7.5, 0.02% Tween 20) to form working assay solutions that contain 10% ethanol. The assay is carried out on 96-well microtiter plates using a modified procedure of that reported by Ong et al., Blood 110, 1942-1949, 2007 and Yang et al., Org Lett 7, 1073-1076, 2005, both of which references are incorporated herein by reference in their entirety.
Data were generated by one of two variant methods. Test compounds are screened by one of two approaches described as follows. In the first approach, each reaction contains 5 μL of His-hSHIP1 enzyme (5-20 ng), 10 μL of the substrate, 1,3,4,5-inositol tetrakisphosphate (IP4; 50 μM final), 5 μL of Phosphatase Assay Buffer, and 5 µL of test compound at various concentrations in 10% ethanol (0-300 μM final). Control blanks are also prepared by replacing His-hSHIP1 enzyme, IP4, or test compounds with Phosphatase Assay Buffer. After adding the reaction components in a 96-well microtiter plate on ice, the reaction is mixed by briefly shaking the plate vigorously. The reaction is then incubated at 37° C. for 15 min with gentle shaking followed by addition of 100 μL of Biomol Green Reagent (BIOMOL, Pa., USA) to terminate the reaction. The free phosphate released from IP4 by His-hSHIP1 binds to the Biomol Green Reagent, which turns the dye to green color. After incubating the mixture for 20 min at room temperature for color development, the absorbance is read with SpectraMax Plus 96-well plate reader (Molecular Devices, Sunnyvale, Calif., USA) at a wavelength of 650 nm.
As for `CC1=CC[C@H]2C(C)(C)CCC[C@]2(C)C1C(=O)c1cc(C)cc(O)c1` (stereo partly drawn) [Compound No. 4, 3-{[(4aS,8aS)-2,5,5,8a-tetramethyl-1,4,4a,5,6,7,8,8a-octahydronaphthalen-1-yl]carbonyl}-5-methylphenol], the “Scoring, Approach 1 (% increase relative to background)” value is listed as “++ (50 ≤ x < 65)”. The same measure for `COc1cc(C)cc(C(=O)[C@H]2[C@@H](C)[C@H](O)C[C@H]3C(C)(C)CCC[C@]23C)c1` [Compound No. 6, (2R,3R,4S,4aS,8aS)-4-[(3-methoxy-5-methylphenyl)carbonyl]-3,4a,8,8-tetramethyl-decahydronaphthalen-2-ol]: “+ (0 < x < 50)”; for `Cc1cc(O)cc(C(=O)[C@H]2[C@H](C)C(=O)C[C@H]3C(C)(C)CCC[C@]23C)c1` [Compound No. 8, (3S,4S,4aS,8aS)-4-[(3-hydroxy-5-methylphenyl)carbonyl]-3,4a,8,8-tetramethyl-decahydronaphthalen-2-one]: “+ (0 < x < 50)”. The same measure for `Cc1cc(O)cc(C(=O)C2[C@@H](C)[C@H](O)C[C@H]3C(C)(C)CCC[C@]23C)c1` (stereo partly drawn) [Compound No. 9, (2R,3R,4aS,8aS)-4-[(3-hydroxy-5-methylphenyl)carbonyl]-3,4a,8,8-tetramethyl-decahydronaphthalen-2-ol]: “+ (0 < x < 50)”. Turning to `COc1cc(C)cc(C(=O)[C@H]2[C@H](C)C(NCCCN)C[C@H]3C(C)(C)CCC[C@]23C)c1.Cl.Cl` (stereo partly drawn) [Compound No. 11, (3S,4S,4aS,8aS)-N-(3-aminopropyl)-4-[(3-methoxy-5-methylphenyl)carbonyl]-3,4a,8,8-tetramethyl-decahydronaphthalen-2-amine dihydrochloride], the “Scoring, Approach 1 (% increase relative to background)” value is recorded as “+++ (x ≥65)”. Turning to `Cc1cc(O)cc(C[C@H]2[C@@H](CO)CC[C@H]3C(C)(C)CCC[C@]23C)c1` [Compound No. 17, 3-{[(1S,2S,4aS,8aR)-2-(hydroxymethyl)-5,5,8a-trimethyl-decahydronaphthalen-1-yl]methyl}-5-methylphenol], the “Scoring, Approach 1 (% increase relative to background)” value is “++ (50 ≤ x < 65)”. The same measure for `Cc1cc(O)cc(C(=O)[C@H]2[C@H](C)C(O)C[C@H]3C(C)(C)CCC[C@]23C)c1` (stereo partly drawn) [Compound No. 23, (3S,4S,4aS,8aS)-4-[(3-hydroxy-5-methylphenyl)carbonyl]-3,4a,8,8-tetramethyl-decahydronaphthalen-2-ol]: “+ (0 < x < 50)”. The same measure for `COc1cc(C)cc(OC[C@@H]2[C@@]3(C)CCCC(C)(C)[C@@H]3CC[C@@]2(C)O)c1` [Compound No. 27, (1S,2R,4aS,8aS)-1-(3-methoxy-5-methylphenoxymethyl)-2,5,5,8a-tetramethyl-decahydronaphthalen-2-ol]: “++ (50 ≤ x < 65)”; for `CC1=CC[C@H]2C(C)(C)CCC[C@]2(C)[C@H]1COc1cc(C)cc(O)c1` [Compound No. 29, 3-{[(1S,4aS,8aS)-2,5,5,8a-tetramethyl-1,4,4a,5,6,7,8,8a-octahydronaphthalen-1-yl]methoxy}-5-methylphenol]: “+++ (x ≥65)”; for `COc1cc(C)cc(OC[C@H]2C(C)C(O)C[C@H]3C(C)(C)CCC[C@]23C)c1` (stereo partly drawn) [Compound No. 30, (4S,4aS,8aS)-4-(3-methoxy-5-methylphenoxymethyl)-3,4a,8,8-tetramethyl-decahydronaphthalen-2-ol]: “+ (0 < x < 50)”. The entry for `COc1cc(O)cc(NC(=O)C2=C(C)CC[C@H]3C(C)(C)CCC[C@]23C)c1` [Compound No. 42, (4aS,8aS)-N-(3-hydroxy-5-methoxyphenyl)-2,5,5,8a-tetramethyl-3,4,4a,5,6,7,8,8a-octahydronaphthalene-1-carboxamide] is “+ (0 < x < 50)”; for `CC1=C(C(=O)Nc2cc(O)cc(O)c2)[C@@]2(C)CCCC(C)(C)[C@@H]2CC1` [Compound No. 43, (4aS,8aS)-N-(3,5-dihydroxyphenyl)-2,5,5,8a-tetramethyl-3,4,4a,5,6,7,8,8a-octahydronaphthalene-1-carboxamide] it is “+ (0 < x < 50)”. For the compound `COc1cc(OC)cc(C(=O)C[C@@H]2[C@@]3(C)CCCC(C)(C)[C@@H]3CC[C@@]2(C)O)c1` [Compound No. 45, 2-[(1R,2R,4aS,8aS)-2-hydroxy-2,5,5,8a-tetramethyl-decahydronaphthalen-1-yl]-1-(3,5-dimethoxyphenyl)ethan-1-one], the “Scoring, Approach 1 (% increase relative to background)” value is given as “++ (50 ≤ x < 65)”. The entry for `COc1cc(OC)cc(C(=O)C[C@H]2[C@@H](C)CC[C@H]3C(C)(C)CCC[C@]23C)c1` [Compound No. 46, 2-[(1S,2S,4aS,8aR)-2,5,5,8a-tetramethyl-decahydronaphthalen-1-yl]-1-(3,5-dimethoxyphenyl)ethan-1-one] is “++ (50 ≤ x < 65)”.

As for `COc1cc(O)cc(C(=O)C[C@H]2[C@@H](C)CC[C@H]3C(C)(C)CCC[C@]23C)c1` [Compound No. 47, 2-[(1S,2S,4aS,8aR)-2,5,5,8a-tetramethyl-decahydronaphthalen-1-yl]-1-(3-hydroxy-5-methoxyphenyl)ethan-1-one], the “Scoring, Approach 1 (% increase relative to background)” value was “++ (50 ≤ x < 65)”.

As for `COc1cc(OC)cc(C(=O)[C@@H]2[C@@]3(C)CCCC(C)(C)[C@@H]3CC[C@@]2(C)O)c1` [Compound No. 50, (1R,2R,4aS,8aS)-1-[(3,5-dimethoxyphenyl)carbonyl]-2,5,5,8a-tetramethyl-decahydronaphthalen-2-ol], the “Scoring, Approach 1 (% increase relative to background)” value is “++ (50 ≤ x < 65)”. The entry for `COc1cc(OC)cc(C(=O)[C@H]2C(C)=CC[C@H]3C(C)(C)CCC[C@]23C)c1` [Compound No. 51, [(1S,4aS,8aS)-2,5,5,8a-tetramethyl-1,4,4a,5,6,7,8,8a-octahydronaphthalen-1-yl](3,5-dimethoxyphenyl)methanone] is “++ (50 ≤ x < 65)”; for `COc1cc(OC)cc(C(=O)[C@H]2[C@@H](C)[C@H](O)C[C@H]3C(C)(C)CCC[C@]23C)c1` [Compound No. 52, (2R,3R,4S,4aS,8aS)-4-[(3,5-dimethoxyphenyl)carbonyl]-3,4a,8,8-tetramethyl-decahydronaphthalen-2-ol] it is “+++ (x ≥65)”; for `COc1cc(OC)cc(C(=O)[C@H]2[C@@H](C)C(=O)C[C@H]3C(C)(C)CCC[C@]23C)c1` [Compound No. 53, (3R,4S,4aS,8aS)-4-[(3,5-dimethoxyphenyl)carbonyl]-3,4a,8,8-tetramethyl-decahydronaphthalen-2-one] it is “++ (50 ≤ x < 65)”. The entry for `COc1ccc(CN[C@@H]2C[C@H]3C(C)(C)CCC[C@]3(C)[C@@H](C(=O)c3cc(OC)cc(OC)c3)[C@@H]2C)cc1` [Compound No. 54, (2R,3S,4S,4aS,8aS)-4-[(3,5-dimethoxyphenyl)carbonyl]-N-[(4-methoxyphenyl)methyl]-3,4a,8,8-tetramethyl-decahydronaphthalen-2-amine] is “++ (50 ≤ x < 65)”.

Source of the values: patent US10272081B2, “SHIP1 modulators and methods related thereto” (Aquinox Pharmaceuticals (Canada) Inc., priority 2013, dated 2019).
